# Results published in ChEMBL document CHEMBL1201862, “PubChem BioAssay data set” (2004).
#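 Results reflect a 48-hour exposure of cells in 96-well plates to compound at five concentrations. Abbreviation: GI50, concentration required for 50% inhibition of growth.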 The source made the active and inactive calls. Rule as the data show it: active = GI50 up to about 1.1 µM and inactive = higher. Residues, ends and D or L forms follow the SMILES beside them.
# Columns and labels:
# Test in all cases: inhibition of tumour cell growth, NCI panel, 48 h
# Hs-578T = system: Hs-578T
# SW-620 = system: SW-620
# K562 = system: K562
# RPMI-8226 = system: RPMI-8226
# PC-3 = system: PC-3
# SK-MEL-5 = system: SK-MEL-5
# SNB-75 = system: SNB-75
# SF-295 = system: SF-295
# SN12C = system: SN12C
# MDA-MB-231 = system: MDA-MB-231
# UACC-257 = system: UACC-257
# MOLT-4 = system: MOLT-4
# CAKI-1 = system: CAKI-1
# OVCAR-4 = system: OVCAR-4
# NCI-H522 = system: NCI-H522
# A549 = system: A549
# UO-31 = system: UO-31
# HCC 2998 = system: HCC 2998
SMILES,GI50 (Hs-578T),GI50 (SW-620),GI50 (K562),GI50 (RPMI-8226),GI50 (PC-3),GI50 (SK-MEL-5),GI50 (SNB-75),GI50 (SF-295),GI50 (SN12C),GI50 (MDA-MB-231),GI50 (UACC-257),GI50 (MOLT-4),GI50 (CAKI-1),GI50 (OVCAR-4),GI50 (NCI-H522),GI50 (A549),GI50 (UO-31),GI50 (HCC 2998)
S=C(c1c[nH]c2ccccc12)N1CCN(c2ccccc2)CC1,1.06 µM (active),> 100 µM (inactive),> 100 µM (inactive),> 100 µM (inactive),> 100 µM (inactive),80 µM (inactive),0.403 µM (active),79.8 µM (inactive),21.8 µM (inactive),> 100 µM (inactive),> 100 µM (inactive),> 100 µM (inactive),> 100 µM (inactive),–,–,–,–,–
C=C(C)CCC1CCCCC(CN(C)C)C1=O (configuration not stated),> 100 µM (inactive),> 100 µM (inactive),> 100 µM (inactive),> 100 µM (inactive),> 100 µM (inactive),> 100 µM (inactive),> 100 µM (inactive),> 100 µM (inactive),> 100 µM (inactive),> 100 µM (inactive),> 100 µM (inactive),31.3 µM (inactive),> 100 µM (inactive),> 100 µM (inactive),10.7 µM (inactive),> 100 µM (inactive),> 100 µM (inactive),–
CSC1=N/C(=C\c2cccs2)C(=O)N1CN1CCOCC1,51.6 µM (inactive),55 µM (inactive),43.8 µM (inactive),20 µM (inactive),50.8 µM (inactive),41.1 µM (inactive),37.5 µM (inactive),> 100 µM (inactive),5.2 µM (inactive),71.1 µM (inactive),–,34.1 µM (inactive),–,30.6 µM (inactive),30.1 µM (inactive),> 100 µM (inactive),39.9 µM (inactive),–
CC(C)=C=CC(C)(C)NS(=O)(=O)NC(C)(C)C=C=C(C)C,> 100 µM (inactive),> 100 µM (inactive),19.8 µM (inactive),–,81.1 µM (inactive),> 100 µM (inactive),47.4 µM (inactive),> 100 µM (inactive),> 100 µM (inactive),–,> 100 µM (inactive),–,> 100 µM (inactive),> 100 µM (inactive),56.6 µM (inactive),42.1 µM (inactive),–,25.5 µM (inactive)
CSc1nc(C#N)c(/N=C\N(C)C)n1C,> 100 µM (inactive),> 100 µM (inactive),> 100 µM (inactive),> 100 µM (inactive),> 100 µM (inactive),> 100 µM (inactive),–,> 100 µM (inactive),> 100 µM (inactive),> 100 µM (inactive),> 100 µM (inactive),> 100 µM (inactive),> 100 µM (inactive),> 100 µM (inactive),> 100 µM (inactive),> 100 µM (inactive),> 100 µM (inactive),–
CCOP(=O)(/C=C\n1ccc(N)nc1=O)OCC,0.349 µM (active),> 100 µM (inactive),> 100 µM (inactive),> 100 µM (inactive),> 100 µM (inactive),> 100 µM (inactive),> 100 µM (inactive),> 100 µM (inactive),> 100 µM (inactive),> 100 µM (inactive),> 100 µM (inactive),> 100 µM (inactive),> 100 µM (inactive),> 100 µM (inactive),47.4 µM (inactive),> 100 µM (inactive),–,–
O=C1C2=Cc3ccccc3OC2(O)Oc2cc(O)ccc21 (configuration not stated),–,> 100 µM (inactive),> 100 µM (inactive),> 100 µM (inactive),> 100 µM (inactive),> 100 µM (inactive),> 100 µM (inactive),> 100 µM (inactive),> 100 µM (inactive),> 100 µM (inactive),> 100 µM (inactive),> 100 µM (inactive),> 100 µM (inactive),–,–,> 100 µM (inactive),–,> 100 µM (inactive)
CC(=O)OCC1=C(C)C(OC(=O)C(OC(C)=O)[C@@H](NC(=O)c2ccccc2)c2ccccc2)CCC1(C)C (some centres not stated),–,> 100 µM (inactive),> 100 µM (inactive),> 100 µM (inactive),–,> 100 µM (inactive),9.86 µM (inactive),> 100 µM (inactive),> 100 µM (inactive),> 100 µM (inactive),> 100 µM (inactive),> 100 µM (inactive),> 100 µM (inactive),> 100 µM (inactive),–,> 100 µM (inactive),> 100 µM (inactive),> 100 µM (inactive)
CC(=O)NC(CO)C(=O)NC(Cc1ccc(O)cc1)C(=O)NCC(N)=O (stereo not drawn) (Ac-Ser-Tyr-Gly-NH2; configuration not given here),–,> 100 µM (inactive),> 100 µM (inactive),> 100 µM (inactive),> 100 µM (inactive),> 100 µM (inactive),> 100 µM (inactive),> 100 µM (inactive),> 100 µM (inactive),> 100 µM (inactive),> 100 µM (inactive),> 100 µM (inactive),> 100 µM (inactive),> 100 µM (inactive),74.5 µM (inactive),> 100 µM (inactive),> 100 µM (inactive),> 100 µM (inactive)
